# Experiments:
# Type in all cases: in vivo
# [1] = tested on: nude mice with palmar fascia fibrosis; assay: palmar fascia fibrosis in nude mice (second Example 2); details: relative to levels prior to administration, 6-10 weeks
# Text: Palmar fascia fibrosis is induced in nude mice by introducing fibroblasts from fibrotic cords of Dupuytren's disease patients as described in Stish, L. et al., BMC Musculoskelet. Disord. 16: 138-148 (2015) which is hereby incorporated by reference with respect to its description of the establishment of an animal model system for the study of palmar fascia fibrosis. After the establishment of palmar fascia fibrosis in the fibroblast treated animals, test articles comprising any one of Compounds 1-4, or any other compound disclosed herein, are administered to each subject as appropriate for its formulation, daily or as appropriate, for 6-10 weeks. Unilateral forepaw biopsies are taken prior to the first administration of the test articles and again after sacrifice following the last administration of the test articles. Biopsy samples are analyzed as described in Example I, with the addition of immunohistochemical staining for type III collagen. Palmar fascia from animals treated with the compounds disclosed herein, especially those animals treated with Compound 2, show reduced levels of hydroxyproline, decreased Collagen III staining, and decreased fibrosis score relative to the levels shown prior to the administration of the test articles. Mock treated animals show little or no reduction in fibrosis, hydroxyproline content, or Collagen III content.
# [2] = tested on: pro-fibrotic and pro-inflammatory genes (Col1a1, Col3a1, ACTA2, LGALS1, ENPP2, ANXA2); assay: RNAseq liver gene expression in diet-induced NASH mouse model (Example 6); design: concentration or dose not given beside the values
# Method: (§1) Compound 2 was evaluated in a diet-induced NASH mouse model (See, e.g., Hansen, H. et al., Drug Discovery Today 22(17):1701-1718 (2017) which is hereby incorporated by reference with respect to its disclosure of diet-induced, genetic, chemical, and other NASH mouse models). […] Animals were biopsied pre-study, and only animals with NASH and fibrosis were selected for study. Selected animals were acclimatized and randomized, with experimental groups of 11-12 animals per cohort receiving oral dosing of compound 2 according to the following schedules: Daily dosing for 8 weeks; or daily dosing for week 0-1 followed by weekly dosing for weeks 2-8. At week 8, animals were sacrificed and tissues analyzed. Plasma enzymes (P-ALT (alanine aminotransferase) and P-AST (aspartate aminotransferase)), total plasma triglycerides, and total plasma cholesterol were measured, and terminal necropsy of each liver was carried out, assaying total liver biochemistry including total liver triglycerides, and total liver cholesterol, as well as histological evaluation of NAFLD activity score (done pre- and post-treatment), fibrosis stage (also done pre- and post-treatment), steatosis, Col1a1 level, and galactin-3 level. Tissue samples were preserved for characterization using RNAseq; RNAseq was used to determine expression levels for genes showing differential expression in compound 2-treated vs. vehicle treated animals and/or genes known to be implicated in fibrosis. Additionally, expression levels for genes known to be implicated in inflammation, such as ANXA2, were determined in compound 2-treated vs. vehicle treated animals.
# [3] = tested on: Sprague-Dawley Rats or C57BL mice with hypertrophic skin lesions; assay: hypertrophic skin lesions in rats or mice (Example 3); details: injection site skin samples; relative to levels prior to administration; 6-10 weeks
# Text: Hypertrophic skin lesions are induced in Sprague-Dawley Rats by subcutaneous injection of capsaicin as described in Wallengren, J. et al., Skin Pharm. Appl. Skin Physiol. 15(3):154-165(2002), which is hereby incorporated by reference with respect to its description of the induction of hypertrophic skin lesions in rats; or in C57BL or other appropriate strain mice by subcutaneous administration of CCl4 and/or bleomycin, as described in Alonso-Merino et al., Proc. Nat. Acad. Sci. 113(24):E3451-60 (2016), which is incorporated herein for its disclosure of the induction of fibrotic skin lesions in mice. After the establishment of hypertrophic skin lesions in the capsaicin, CCl4 and/or bleomycin treated animals, test articles comprising any one of Compounds 1-4, or any other compound disclosed herein, are administered to each subject animal as appropriate for its formulation, daily or as appropriate, for 6-10 weeks. Skin biopsies from the injection site are taken prior to the first administration of the test articles and again after sacrifice following the last administration of the test articles. Biopsy samples are analyzed as described in Example I, with the addition of immunohistochemical staining for type III collagen. Injection site skin samples from animals treated with the compounds disclosed herein, especially those animals treated with Compound 2, show reduced levels of hydroxyproline, decreased Collagen III staining, and decreased fibrosis score relative to the levels shown prior to the administration of the test articles. Mock treated animals show little or no reduction in fibrosis, hydroxyproline content, or Collagen III content.
# [4] = tested on: Agl-/- mice that manifest GSD-3-like hepatic symptoms; assay: GSD-3-like Agl-/- mice (Example 4); details: liver samples; relative to levels prior to administration; 6-10 weeks
# Method: (§2) Glucose-6-phosphatase-α deficient mice that manifest GSD-3-like hepatic symptoms, including hypercholesterolemia and hyperlipidemia (Agl−/−, see e.g. Liu, K. M. et al., Mol. Genet. Metabol. 111(4):467-76 (2014)) are treated with test articles comprising any one of Compounds 1-4, or any other compound disclosed herein, administered to each subject as appropriate for its formulation, daily or as appropriate, for 6-10 weeks. Liver biopsies are taken prior to the first administration of the test articles and again after sacrifice following the last administration of the test articles. Biopsy samples are analyzed as described in Example I. Liver samples from animals treated with the compounds disclosed herein, especially those animals treated with Compound 2, show reduced levels of hydroxyproline, decreased Collagen I staining, and decreased fibrosis score relative to the levels shown prior to the administration of the test articles. Mock treated animals show little or no reduction in fibrosis, hydroxyproline content, or Collagen I content.
# [5] = tested on: DIO-NASH mice; assay: DIO-NASH mice, 8 weeks oral once-daily treatment, liver fibrosis read-outs (Example 1); details: for proportion of animals with reduction in fibrosis score post-treatment: compared with mock treated animals; for liver Picro-Sirius Red (PSR) staining (collagen 1 and 3): terminal liver sections, morphometry, Compound 1 vs mock, Compound 2 vs control- or mock-treated
# Method: DIO-NASH mice were acclimatized for 3 weeks, with pre-treatment liver biopsy samples collected prior to acclimatization. Mice were randomly assigned to one of five dosing groups, with 12 mice per group. Assigned dosages were: Compound 2 (low): 3 mg/kg; Compound 2 (high): 10 mg/kg; Compound 1: 10 mg/kg; and Elafibranor (30 mg/kg). One group was mock treated with vehicle only as a control. Dosage forms were administered orally once per day. After 8 weeks, animals were sacrificed and liver samples were taken. Liver samples were assayed for total liver hydroxyproline, and subjected to immunohistochemical observation for fibrosis stage as well as the extent of ColaI (Collagen Type Ia) staining. […] Since hydroxyproline is a significant component of collagen, and collagen is the most significant source of hydroxyproline in animal tissues, levels of hydroxyproline provide a reliable proxy for the presence of collagen in a sample.
# Terminal liver biopsy samples were also subjected to histochemical staining and immunohistochemical staining. Representative images of liver stained with Picro-Sirius Red (to visualize collagen I and III deposition, red stain) at the end of the treatment period following 8 weeks of treatment with vehicle, low dose Compound 2, high dose Compound 2, Compound 1, or elafibranor are shown in FIG. 2. […] Representative images of liver stained with anti-type I collagen (col1a1) (Southern Biotech, Cat. 131001) at the end of the treatment period following 8 weeks of treatment with vehicle, low dose Compound 2, high dose Compound 2, Compound 1, or elafibranor are shown in FIG. 3. The extent of Col1A1 content was calculated as the total liver Col1A1 staining in terminal liver biopsy samples.
# Fibrosis scores were also calculated based on observation of terminal liver biopsy samples.
# [6] = tested on: Dunkin-Hartley guinea pigs with pulmonary fibrosis; assay: bleomycin-induced pulmonary fibrosis in guinea pigs (Example 2); details: lungs; relative to levels prior to administration; 6-10 weeks
# Method: Pulmonary fibrosis is induced in healthy male Dunkin-Hartley guinea pigs by administering bleomycin intratracheally. Control subjects are developed by intratracheal administration of saline solution. After the establishment of pulmonary fibrosis in the bleomycin treated animals, test articles comprising any one of Compounds 1-4, or any other compound disclosed herein, are administered to each subject as appropriate for its formulation, daily or as appropriate, for 6-10 weeks. Unilateral lung biopsies are taken prior to the first administration of the test articles and again after sacrifice following the last administration of the test articles. Biopsy samples are analyzed as described in Example I, with the addition of immunohistochemical staining for type III collagen. Lungs from animals treated with the compounds disclosed herein, especially those animals treated with Compound 2, show reduced levels of hydroxyproline, decreased Collagen III staining, and decreased fibrosis score relative to the levels shown prior to the administration of the test articles. Mock treated animals show little or no reduction in fibrosis, hydroxyproline content, or Collagen III content.
# [7] = tested on: Phosphorylase kinase deficient mice (PhKc-/-); assay: GSD-8/9-like PhKc-/- mice (Example 5); details: liver samples; relative to levels prior to administration; 6-10 weeks
# Method: as §2, with “Phosphorylase kinase” for “Glucose-6-phosphatase-α”, “GSD-8/9-like” for “GSD-3-like”, “(PhKc−/−, see, e.g., Varsanyi,” for “(Agl−/−, see e.g. Liu, K.”, “Biochem.” for “Mol.”, “18(3-4):247-61 (1980)),” for “Metabol. 111(4):467-76 (2014))”
# [8] = tested on: diet-induced NASH mouse model; assay: diet-induced NASH mouse model, 8 weeks dosing, liver/plasma biochemistry and histology (Example 6); details: for total liver galectin-3: compared to vehicle, 8 weeks dosing, FIG. 9
# Method: as §1
# [9] = post-treatment liver, 8 weeks, FIG. 8
# [10] = relative to pre-treatment samples, 8 weeks, FIG. 7
# [11] = treatment groups relative to untreated controls, week 8, oral
smiles,measurement,setting,value
Cc1cc(OCP2(=O)OCC[C@@H](c3cccc(Cl)c3)O2)cc(C)c1Cc1ccc(O)c(C(C)C)c1 (stereo partly shown) [Compound 2],Collagen III staining,[1],decreased
same,fibrosis score,[1],decreased
same,levels of hydroxyproline,[1],reduced
same,ACTA2 Change versus Vehicle Control,"[2]; 8-week dosing, fibrosis marker",−37.0%
same,Col1a1 Change versus Vehicle Control,"[2]; 8-week dosing, fibrosis marker",−36.3%
same,Col3a1 Change versus Vehicle Control,"[2]; 8-week dosing, fibrosis marker",−27.1%
same,ENPP2 Change versus Vehicle Control,"[2]; 8-week dosing, fibrosis marker",−56.3%
same,LGALS1 Change versus Vehicle Control,"[2]; 8-week dosing, fibrosis marker",−64.7%
same,ANXA2 Change versus Vehicle Control,"[2]; 8-week dosing, inflammatory marker",−40.3%
same,expression of pro-inflammatory gene ANXA2 reduced by,"[2]; post-treatment liver, 8 weeks",40.3%
same,expression of ACTA2 (αSMA) reduced by,[2]; [9],37%
same,expression of Col1a1 reduced by,[2]; [9],36.3%
same,expression of Col3a1 reduced by,[2]; [9],27.1%
same,expression of LGALS1 (Galectin 1) reduced by,[2]; [9],64.7%
same,Collagen III staining,[3],decreased
same,fibrosis score,[3],decreased
same,levels of hydroxyproline,[3],reduced
same,Collagen I staining,[4],decreased
same,fibrosis score,[4],decreased
same,levels of hydroxyproline,[4],reduced
same,animals showing increases in fibrosis score post-treatment,[5]; 8 weeks,No
same,proportion of animals with reduction in fibrosis score post-treatment,[5]; 8 weeks,higher
same,total liver Col1A1 content,"[5]; terminal liver biopsy, anti-type I collagen staining, vs control-treated or mock-treated animals, 8 weeks",lower
same,liver Picro-Sirius Red (PSR) staining (collagen 1 and 3),[5]; 8 weeks oral once per day,lower
same,total liver hydroxyproline levels,"[5]; vs control-treated (elafibranor) or mock-treated animals, 8 weeks oral once per day, Compound 2 3 and 10 mg/kg",lower
same,Collagen III staining,[6],decreased
same,fibrosis score,[6],decreased
same,levels of hydroxyproline,[6],reduced
same,Collagen I staining,[7],decreased
same,fibrosis score,[7],decreased
same,levels of hydroxyproline,[7],reduced
same,toxicity,[8]; 8 weeks oral dosing,No significant toxicity
same,total liver galectin-3,[8],reduction
same,reduction in fibrosis (fibrosis score),[8]; [10],50.2%
same,reduction in hydroxyproline,[8]; [10],46.3%
same,reduction in type 1 collagen deposition,[8]; [10],60.2%
same,liver cholesterol,[8]; [11],Significant reductions
same,liver triglycerides,[8]; [11],Significant reductions
same,NAS scores,"[8]; week 8, oral",significant improvements
same,"total lipid content in the liver, reduction","[8]; week 8, oral, FIG. 6",approximately 80%
Cc1cc(OCP(=O)(OCOC(=O)C(C)(C)C)OCOC(=O)C(C)(C)C)cc(C)c1Cc1ccc(O)c(Cc2ccccc2)c1 [Compound 1],ACTA2 Change versus Vehicle Control,"[2]; 8-week dosing, fibrosis marker",−30.5%
same,ENPP2 Change versus Vehicle Control,"[2]; 8-week dosing, fibrosis marker",−44.1%
same,LGALS1 Change versus Vehicle Control,"[2]; 8-week dosing, fibrosis marker",−35.1%
same,proportion of animals with reduction in fibrosis score post-treatment,[5]; 8 weeks,higher
same,liver Picro-Sirius Red (PSR) staining (collagen 1 and 3),[5]; 8 weeks oral once per day,lower
same,total liver galectin-3,[8],reduction
